Laboratory results reported in PubChem BioAssay (NCI).
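All cell lines were grown in 96-well plates and treated with compound for 48 hours. TGI marks complete inhibition of growth.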

Legend:
Experiment in all cases: growth of human tumour cells (NCI), 48 h
[1] = test system: SNB-19 CNS
[2] = test system: MALME-3M melanoma
[3] = test system: SK-MEL-28 melanoma
[4] = test system: UACC-62 melanoma
[5] = test system: HOP-92 NSCLC
[6] = test system: 786-0 renal
[7] = test system: HT29 colon
[8] = test system: PC-3 prostate
[9] = test system: MOLT-4 leukemia
[10] = test system: SK-MEL-2 melanoma
[11] = test system: MDA-MB-435
[12] = test system: SK-MEL-5 melanoma
[13] = test system: DU-145 prostate
[14] = test system: TK-10 renal
[15] = test system: A549 NSCLC
[16] = test system: EKVX NSCLC
[17] = test system: SF-539 CNS
[18] = test system: HCC-2998 colon
[19] = test system: RXF 393 renal

Structure (SMILES)	TGI [1]	TGI [2]	TGI [3]	TGI [4]	TGI [5]	TGI [6]	TGI [7]	TGI [8]	TGI [9]	TGI [10]	TGI [11]	TGI [12]	TGI [13]	TGI [14]	TGI [15]	TGI [16]	TGI [17]	TGI [18]	TGI [19]
CSCCC(NC(c1ccccc1)c1ccccc1)[P+](=O)O (stereo not given)	> 100 µM	> 100 µM	> 100 µM	> 100 µM	> 100 µM	> 100 µM	> 100 µM	> 100 µM	> 100 µM	> 100 µM	> 100 µM	> 100 µM	> 100 µM	> 100 µM	> 100 µM	> 100 µM	–	–	–
CC1(C)CC(=O)c2c(nc3ccc4ccccc4c3c2-c2ccc(NC(=O)CCCCC(=O)Nc3ccc(-c4c5c(nc6ccc7ccccc7c46)CC(C)(C)CC5=O)cc3)cc2)C1	> 100 µM	–	> 100 µM	> 100 µM	> 100 µM	> 100 µM	> 100 µM	> 100 µM	> 100 µM	> 100 µM	> 100 µM	> 100 µM	> 100 µM	> 100 µM	> 100 µM	> 100 µM	> 100 µM	–	–
O=C(O)c1ccccc1/C=N\NC1=NCCN1	> 100 µM	> 100 µM	–	> 100 µM	> 100 µM	> 100 µM	> 100 µM	> 100 µM	> 100 µM	> 100 µM	> 100 µM	> 100 µM	> 100 µM	> 100 µM	> 100 µM	> 100 µM	> 100 µM	> 100 µM	–
COc1cc2c(c(OC)c1OC)C(=O)CC2N (stereo not given)	> 100 µM	> 100 µM	> 100 µM	> 100 µM	> 100 µM	> 100 µM	> 100 µM	> 100 µM	> 100 µM	> 100 µM	> 100 µM	> 100 µM	–	> 100 µM	> 100 µM	> 100 µM	> 100 µM	> 100 µM	–
C/C(=N\Nc1ccc([N+](=O)[O-])cc1)C(=O)N(C)Nc1ccccc1	> 100 µM	–	–	> 100 µM	> 100 µM	> 100 µM	> 100 µM	–	> 100 µM	> 100 µM	–	–	–	> 100 µM	> 100 µM	> 100 µM	> 100 µM	> 100 µM	> 100 µM
CCCCCCCCCN1CCC(=O)C(C(=O)OC)C1 (stereo not given)	–	–	–	24.9 µM	33.9 µM	30.6 µM	22.7 µM	–	54.6 µM	–	28.5 µM	33 µM	29.3 µM	31.4 µM	30.7 µM	34 µM	36.5 µM	33.8 µM	32.7 µM
CCOC(=O)C(C)(C)Oc1ccc2c(-c3ccc(Cl)cc3)cc(=O)oc2c1	> 100 µM	> 100 µM	> 100 µM	> 100 µM	–	> 100 µM	> 100 µM	–	> 100 µM	> 100 µM	–	> 100 µM	–	> 100 µM	> 100 µM	> 100 µM	> 100 µM	> 100 µM	> 100 µM
CCN(CC)CCCNC(=O)Cc1ccccc1Nc1c(Cl)cccc1Cl	31.8 µM	–	25.4 µM	29.5 µM	–	21.8 µM	17.6 µM	–	28 µM	–	–	14.1 µM	–	26.8 µM	36.2 µM	28.2 µM	28.7 µM	11.5 µM	30.6 µM
O=c1c([Se]c2coc3ccccc3c2=O)coc2ccccc12	27.4 µM	31.8 µM	30.8 µM	30.9 µM	31.7 µM	32.9 µM	32.4 µM	–	48.2 µM	32.4 µM	–	29.9 µM	–	31.6 µM	20.9 µM	33.6 µM	24.2 µM	33.2 µM	29.5 µM
CCOC(=O)c1c(SCCO)n(-c2ccccc2)c(=S)n(-c2ccccc2)c1=O	> 100 µM	> 100 µM	> 100 µM	> 100 µM	> 100 µM	> 100 µM	> 100 µM	> 100 µM	> 100 µM	> 100 µM	> 100 µM	> 100 µM	> 100 µM	> 100 µM	> 100 µM	> 100 µM	–	–	–
COc1nc(=O)n(C2CC(N=[N+]=[N-])C(CO)O2)cc1C (stereo not given)	> 100 µM	> 100 µM	> 100 µM	> 100 µM	> 100 µM	> 100 µM	> 100 µM	> 100 µM	> 100 µM	> 100 µM	> 100 µM	> 100 µM	> 100 µM	> 100 µM	> 100 µM	> 100 µM	> 100 µM	–	–
Cc1ccc(/C=N/Nc2ncccn2)s1	> 100 µM	> 100 µM	> 100 µM	> 100 µM	> 100 µM	> 100 µM	> 100 µM	> 100 µM	–	> 100 µM	> 100 µM	> 100 µM	–	> 100 µM	> 100 µM	> 100 µM	> 100 µM	> 100 µM	> 100 µM
Cc1ccc(N2C(=O)/C(=C3\Sc4c(nc(C)[nH]c4=O)N3c3ccccc3)SC2=S)cc1	> 100 µM	> 100 µM	> 100 µM	> 100 µM	97.3 µM	25.3 µM	> 100 µM	–	–	> 100 µM	–	> 100 µM	–	59.2 µM	> 100 µM	> 100 µM	29.5 µM	–	–
COc1ccc(C2S/C(=C\c3ccc(OC)cc3OC)C(=O)N2NC(=O)Cc2ccccc2)cc1 (stereo not given)	–	> 100 µM	–	> 100 µM	> 100 µM	> 100 µM	> 100 µM	–	> 100 µM	> 100 µM	–	> 100 µM	–	> 100 µM	> 100 µM	–	> 100 µM	–	> 100 µM
CC(=O)Nc1ccc(-c2nnc(SCC(=O)Nc3ccc(C)cc3)o2)cc1	–	30.8 µM	31.4 µM	30.7 µM	33.4 µM	33.4 µM	31.1 µM	–	> 100 µM	34.4 µM	–	27.8 µM	–	53.6 µM	> 100 µM	–	27.3 µM	–	33.2 µM
